Assay results taken from patent US20250320215A1, “SALTS OF N-[4-(4-[[2-(DIMETHYLAMINO)ETHYL]AMINO]-3-METHYL-1H-PYRAZOLO[3,4-D]PYRIMIDIN-6-YL)-2-FLUOROPHENYL]-2,5-DIFLUOROBENZENESULFONAMIDE AND CRYSTALLINE FORMS THEREOF” (THRYV THERAPEUTICS INC, priority 2022, published 2025).

Experiment: Water activity study (competition of forms, XRPD)
Format: physicochemical
Conditions: room temperature
Experimental: Water activity study was performed using Compound 3 Form B (anhydrate) as the input material in EtOH/Water with different water content at RT. About 5 mg of Compound 3, Form B was used to prepare saturated solutions and the solutions were filtered by syringe at RT. 5 mg of Compound 3, Form D were added in the 1 mL of filtrate, and the suspension was slurried at RT for 3 and 7 days. The solids collected after filtration were analyzed by XRPD.
Protocol: excess amount of Compound 4 Form B was used to prepare saturated solutions. 6-8 mg each of Compound 4 Form B and Form D were added in the solutions. The suspension was slurried at room temperature for the corresponding times. Residual solids were collected by filtration with syringe filter, and characterized by XRPD.

water activity (aw) at which the form is stable / the most stable form: ≤ 0.08
Compound: Cc1n[nH]c2nc(-c3ccc(NS(=O)(=O)c4cc(F)ccc4F)c(F)c3)nc(NCCN(C)C)c12 [Compound 4 Form B]
